Test [1] concerns P388. Put plainly: In vitro rate of inhibition of P388 tumor cell growth at 10E-4 mol/L. The test is classed as functional, Mus musculus. As to conditions: at 100 µM.
For test [2], the system named is P388. Put plainly: In vitro rate of inhibition of P388 tumor cell growth at 10E-7 mol/L. Type of test: functional, Mus musculus. To be noted: at 0.1 µM.
Test [3] relates to A549. Description: In vitro rate of inhibition of A-549 tumor cell growth at 10E-4 mol/L. Type of test: functional, Homo sapiens. As to conditions: at 100 µM.
Test [4] has as its system A549. Description: In vitro rate of inhibition of A-549 tumor cell growth at 10E-5 mol/L. The test is classed as functional, Homo sapiens. As to conditions: at 10 µM.
Test [5] has as its system P388. Put plainly: In vitro rate of inhibition of P388 tumor cell growth at 10E-8 mol/L. Type of test: functional, Mus musculus. To be noted: at 0.01 µM.
In test [6] the test system is P388. Put plainly: In vitro rate of inhibition of P388 tumor cell growth at 10E-5 mol/L. Type of test: functional, Mus musculus. To be noted: at 10 µM.
The subject of test [7] is A549. Put plainly: In vitro rate of inhibition of A-549 tumor cell growth at 10E-7 mol/L. Type of test: functional, Homo sapiens. To be noted: at 0.1 µM.
In test [8] the test system is A549. Put plainly: In vitro rate of inhibition of A-549 tumor cell growth at 10E-6 mol/L. Type of test: functional, Homo sapiens. To be noted: at 1 µM.
For test [9], the system named is A549. Description: In vitro rate of inhibition of A-549 tumor cell growth at 10E-8 mol/L. To be noted: at 0.01 µM. The test is classed as functional, Homo sapiens.
For test [10], the system named is P388. Description: In vitro rate of inhibition of P388 tumor cell growth at 10E-6 mol/L. The test is classed as functional, Mus musculus. To be noted: at 1 µM.

Consider `CCCCCCCCCCCCC/C=C/[C@@H](O)[C@H](CO)NC(C)=O`, for which the Rate of inhibition in test [1] amounted to 73.4%; in [2] it was 3.1%; in test [3], 24.6%; in test [4], 9.2%; in test [5], 0%; in test [6], 4.7%. Besides, the Rate of inhibition in [7] is on record as 7.7%; in test [8], 6.2%; in test [9], 12.3%; in [10] it was 3.1%.
For the compound `CC1=NN(C(=O)OCc2ccccc2)C(C)N=N1` (stereo not given), the Rate of inhibition in [1] was determined as 24.1%; in test [2], 2.3%; in test [3] it was 0%; in test [4], 0%; in [5], 1%; in test [6], 3%. Further, the Rate of inhibition in test [7] is recorded as 0%; in test [8] it was 0%; in test [9], 0%; in [10], 2%.
On to `CC1=NN(C(=O)Nc2cccc([N+](=O)[O-])c2)C(C)=NN1C(=O)Nc1cccc([N+](=O)[O-])c1`, for which the Rate of inhibition in test [1] is reported as 69.8%; in [2] it was 20.6%; in test [3] it was 0.9%; in test [4] it was 0%; in test [5], 22.2%; in test [6], 58.7%. For the same compound, the Rate of inhibition stood at 0% in test [7], 0% in test [8], 0% in test [9] and 38.1% in [10].
Turning to `CC1=NN(C(=O)Nc2ccccc2)C(C)=NN1C(=O)Nc1ccccc1`, the Rate of inhibition in [1] is 89.1%; in test [2], 87.5%; in test [3], 76.5%; in [4] it was 77.9%; in [5], 81.3%; in test [6], 90.6%. In addition, the Rate of inhibition is given as 60.3% in test [7], 79.4% in test [8], 50% in test [9] and 90.6% in test [10].
Take `CC1=NN(C(=O)Nc2ccc(Cl)cc2)C(C)=NN1C(=O)Nc1ccc(Cl)cc1`: the Rate of inhibition came to 50% in [1]; 7.4% in test [2]; 53.4% in test [3]; 14.8% in test [4]; 0% in [5]; 14.8% in [6]. The Rate of inhibition is 7.4% in test [7], 1.9% in test [8], 0% in [9] and 1.9% in [10].
For the compound `CC(=O)N1N=C(c2ccccc2)NN=C1c1ccccc1`, the Rate of inhibition in test [1] stood at 62.7%; in test [2], 5.5%; in test [3], 85.1%; in test [4], 0%; in test [5], 9.2%; in test [6], 10.9%. Also, the Rate of inhibition came out at 0% in [7], 0% in test [8], 0% in [9] and 6.6% in test [10].
As to `CCCC1=NNC(CCC)N=N1` (stereo not given), the Rate of inhibition in test [1] amounted to 42.2%; in test [2], 0%; in test [3] it was 61.7%; in test [4] it was 0.5%; in test [5], 0%; in test [6], 0%. Moreover, the Rate of inhibition in test [7], in [8], in test [9] and in [10] was 0% in each case.
Consider `CC1=NN(C(=O)OCCC(C)C)C(C)N=N1` (stereo not given), for which the Rate of inhibition in test [1] turned out to be 28.8%; in test [2] it was 0.8%; in test [3], 0%; in test [4], 0%; in test [5], 0%; in test [6], 17.8%. Moreover, the Rate of inhibition in test [7] came to 0%; in test [8] it was 0%; in test [9], 0%; in [10] it was 13.6%.
On to `CCCC1=NN(C(=O)Nc2cccc(Cl)c2)C(CCC)=NN1C(=O)Nc1cccc(Cl)c1`, for which the Rate of inhibition in test [1] amounted to 84.4%; in test [2], 0%; in [3], 91.3%; in test [4], 88.4%; in test [5] it was 0%; in test [6], 58.7%. The Rate of inhibition is 10.8% in test [7], 59.6% in test [8], 0% in [9] and 0% in test [10].
With `CC1=NN(C(=O)Nc2cc(C)cc(C)c2)C(C)=NN1C(=O)Nc1cc(C)cc(C)c1`, the Rate of inhibition is recorded as 90.7% in test [1]; 0% in [2]; 86.4% in test [3]; 73.9% in test [4]; 0% in test [5]; 91.7% in [6]. In addition, the Rate of inhibition in test [7] worked out at 0%; in test [8] it was 37.5%; in test [9], 0%; in test [10], 31.5%.
With `CC1=NN(C(=O)Nc2ccccc2C)C(C)=NN1C(=O)Nc1ccccc1C`, the Rate of inhibition came out at 82.8% in [1]; 0% in test [2]; 80% in [3]; 0% in test [4]; 0% in [5]; 18.8% in test [6]. Also, the Rate of inhibition in [7] is reported as 0%; in test [8] it was 0%; in test [9], 0%; in [10], 1.6%.
For `COc1ccccc1C(=O)N1N=C(c2ccccc2)NN=C1c1ccccc1`, the Rate of inhibition came to 64.5% in test [1]; 0.8% in [2]; 90.9% in test [3]; 72.6% in [4]; 0% in [5]; 25.2% in test [6]. In addition, the Rate of inhibition in test [7] was found to be 0%; in test [8], 4.7%; in [9], 0%; in test [10], 7.4%.
On to `CCCC1=NN(C(=O)OC2CCCCC2)C(CCC)N=N1` (stereo not given), for which the Rate of inhibition in test [1] worked out at 44%; in test [2], 44.8%; in test [3], 25.8%; in test [4], 5.2%; in test [5] it was 4.5%; in [6] it was 33.6%. The Rate of inhibition in test [7] was 18.1%; in test [8], 23.5%; in test [9], 1%; in test [10], 38.3%.
For the compound `CC1=NNC(C)N=N1` (stereo not given), the Rate of inhibition in test [1] turned out to be 100%; in test [2], 15.9%; in test [3] it was 67.7%; in [4], 4.8%; in test [5] it was 0%; in test [6], 19.7%. Also, the Rate of inhibition in [7] is reported as 5.5%; in [8] it was 0%; in test [9] it was 0%; in [10], 9.2%.
Take `CCCCCOC(=O)N1N=C(CCC)N=NC1CCC` (stereo not given): the Rate of inhibition in [1] is 32.8%; in [2] it was 0%; in test [3] it was 0%; in test [4], 0.7%; in [5], 0%; in test [6], 7.7%. For the same compound, the Rate of inhibition came out at 0% in test [7], 2.3% in test [8], 2.5% in [9] and 5.6% in test [10].
Turning to `CC1=NN(C(=O)Nc2cccc(N(C)C)c2)C(C)=NN1C(=O)Nc1cccc(N(C)C)c1`, the Rate of inhibition in [1] is recorded as 95.4%; in [2], 88.9%; in [3], 93.2%; in test [4], 83%; in [5] it was 90.7%; in test [6] it was 84.3%. The Rate of inhibition in test [7] is listed as 73.9%; in [8] it was 80.7%; in test [9], 69.3%; in test [10], 89.8%.
For the compound `CC1=NN(C(=O)NCc2ccccc2)C(C)=NN1C(=O)NCc1ccccc1`, the Rate of inhibition is listed as 92.8% in test [1]; 22% in [2]; 64.4% in [3]; 82.3% in test [4]; 19.6% in test [5]; 57.5% in [6]. Moreover, the Rate of inhibition stood at 32% in test [7], 81.8% in test [8], 14.1% in test [9] and 50.3% in [10].
On to `COc1ccc(NC(=O)N2N=C(C)N(C(=O)Nc3ccc(OC)cc3)N=C2C)cc1`, for which the Rate of inhibition turned out to be 73% in test [1]; 6.3% in test [2]; 24.2% in test [3]; 0.9% in [4]; 0% in test [5]; 36.5% in test [6]. In addition, the Rate of inhibition was determined as 0% in test [7], 0% in [8], 0% in test [9] and 14.3% in [10].
